# Source: patent US7264932B2, “Nuclease inhibitor cocktail” (Applera Corporation, priority 1999, dated 2007)
# What was measured:
# diluted pancreas lysate = experiment: Intactness of total RNA (RNA LabChip), diluted pancreas lysate; type: biochemical, mouse; conditions: 1% SDS, pancreatic lysate 1:20,000, mouse liver total RNA, 25 C 4 min
# Description: A total of 100 pg/ul e. […].
# Pancreatic lysate (0.1 mg/ml) was diluted 1:20,000 in 24 mM Hepes, pH 7.2, 50 mM NaCl, 1 mM MgCl2 and pre-incubated with either 1% SDS or 6.25 mM OVA for 30 s prior to the addition of 2 ug mouse liver total RNA. Reactions were incubated at 25 C for an additional 4 min, quenched, and analyzed on an RNA LabChip.
# Mouse pancreatic tissue (5 mg) was disrupted in 50 ul of 24 mM Hepes, pH 7.2, 50 mM NaCl, 1 mM MgCl2. The diluted lysate (1:20,000) was pre-incubated with 50 uM Benzopurpurin B (BpB) for 30 sec and then added to 100 ng/ul mouse liver total RNA (Ambion) and incubated at 23 C for an additional 4 min. Samples were quenched in a guanidinium lysis buffer, and the RNA purified via MEGAclear™ MAG-96 and eluted with 20 ul nuclease-free water. […] These experiments were conducted in the same fashion except that 100 uM BpB was employed. The sample (1 ul) was analyzed by 2100 BioAnalyzer software (Agilent) after separation on an RNA LabChip.
# Mouse pancreatic tissue (5 mg) was dounced in 50 ul of 24 mM Hepes, pH 7.2, 50 mM NaCl, 1 mM MgCl2. A diluted lysate (1:20,000) was pre-incubated with 100 uM BpB or the analog Benzopurpurin 4B (Bp4B) for 30 sec and then added to 100 ng/ul mouse liver total RNA (Ambion) and incubated at 23 C for an additional 4 min. Samples were quenched in a guanidinium lysis buffer, and the RNA purified via MEGAclear™ MAG-96 and eluted with 20 ul nuclease-free water. The sample (1 ul) was analyzed by 2100 BioAnalyzer software (Agilent) after separation on an RNA LabChip.
# Pancreatic tissue (5 mg) was dounced in 50 ul of 24 mM Hepes, pH 7.2, 50 mM NaCl, 1 mM MgCl2. The lysate was diluted (1:20,000) and then pre-incubated with 200 uM of 467929. […] All samples were pre-incubated for 30 sec before being added to 100 ng/ul mouse liver total RNA (Ambion) and incubated at 23C for an additional 4 min. The RNA was then immediately purified via MEGAclear™ MAG-96 and eluted with 20 ul nuclease-free water. The recovered RNA (1 ul) was analyzed by 2100 BioAnalyzer software after separation on an RNA LabChip.
# RNase A, 1, and T1 = experiment: Anti-RNase antibodies / Specific Anti-RNase Cocktail with added non-antibody inhibitor; type: biochemical; conditions: 0.1–0.5% SDS added to cocktail
# Description: (§1) The activity of an anti-nuclease cocktail is readily determined using radiolabeled RNA or DNA to detect the inhibition of nuclease by anti-nuclease antibodies in the anti-nuclease cocktail. […] Assay buffer, nuclease and an anti-nuclease cocktail are then added to 0.5 ml microfuge tubes. A mixture comprising assay buffer, RNA or DNA and radiolabeled RNA or DNA is added to the microfuge tubes, and the tubes are vortexed and microfuged. After incubation of the tubes at 37° C. for 30 minutes, a portion of the tube contents is removed and placed into gel loading buffer. After mixing, the combination is loaded onto a gel, typically a 8M urea/5% acrylamide gel, which is exposed to film.
# (§2) Radiolabeled RNA was used to detect the inhibition of RNase A, RNase T1, and RNase 1 by specific antibodies.
# (§3) The “MIX” was prepared by combining 10× Assay Buffer (0.9 μl/rxn), 5 mg/ml yeast RNA (0.4 μl/rxn), ^32P-labeled β actin RNA (1 μl/rxn), and nuclease-free H2O (6.7 μl/rxn), for a total of 9 μl/rxn.
# (§4) 1× Assay Buffer was added first. Then Specific RNase Cocktail, Specific Anti-RNase Cocktail and MIX were added. The tubes are vortexed and microfuged, then incubated at 37° C. for 30 min (Table 9).
# (§5) At the end of the incubation time, 10 μl of solution was removed from the tube and placed into 10 μl Gel Loading Buffer II. The combination was mixed thoroughly and loaded onto a 8M urea/5% acrylamide gel. The gel was exposed to film for 30 min. at −80° C. with an intensifying screen.
# RNase A [1] = biological target: T1, RNase A (Bos taurus, UniProt P61823); experiment: Radiolabeled RNA probe degradation gel assay, RNase A; type: biochemical
# T1 sequence (P61823 27-150): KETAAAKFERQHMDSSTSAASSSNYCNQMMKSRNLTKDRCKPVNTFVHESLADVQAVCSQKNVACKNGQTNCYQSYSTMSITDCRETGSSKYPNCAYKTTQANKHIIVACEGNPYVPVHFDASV
# Description: as §1, §2, §3, §4, §5
# RNase A [2] = experiment: Salt-based inhibition of RNase activity (RNaseAlert); type: biochemical, bovine; conditions: increasing salt concentrations, fluorescence 490/520 nm
# [3] = system: total RNase activity in thymus lysate; experiment: RNaseAlert fluorescent assay, thymus lysate; type: biochemical, mouse; conditions: heated + 2.9 mM Ap5A
# Description: (§6) Flash-frozen mouse tissues (5 mg) were dounced in 50 ul of 24 mM Hepes, pH 7.2, 50 mM NaCl, 1 mM MgCl2. RNase activity was measured using Ambion's fluorescent RNaseAlert™ assay ([…] substrate, 10 ug/ml ultrapure BSA) via BMG POLARstar Optima Fluorometer according to the manufacturer's protocol. In addition to measuring total RNase activity, lysates were treated with Ap5A, heat (90 C for 10 min), or 0.5 U/ul RIP. Tissue lysate dilutions: pancreas 1:16,200; liver 1:17; thymus 1:17; kidney 1:17; spleen 1:810; lung 1:810. The data were normalized to maximum RNase activity observed in tissue lysate with kidney being the tissue with the lowest RNase activity and assigned the arbitrary unit of 1. […] However, RIP is specific to RNase A superfamily enzymes, where Ap5A, as a RNA analogue, is expected to be a more general RNase inhibitor.
# [4] = system: total RNase activity in kidney lysate; experiment: RNaseAlert fluorescent assay, kidney lysate; type: biochemical, mouse; conditions: heated + 2.9 mM Ap5A
# Description: as §6
# [5] = system: total RNase activity in liver lysate; experiment: RNaseAlert fluorescent assay, liver lysate; type: biochemical, mouse; conditions: heated + 2.9 mM Ap5A
# Description: as §6
# [6] = system: total RNase activity in pancreas lysate; experiment: RNaseAlert fluorescent assay, pancreas lysate; type: biochemical, mouse
# Description: as §6
# Pancreatic tissue (5 mg) was dounced in 50ul of 24 mM Hepes, pH 7.2, 50 mM NaCl, 1 mM MgCl2. Diluted pancreas lysate (1:12,000) was subjected to a 1/10 volume of negatively charged SP resin. RNase activity of the clarified lysate was measured using. Ambion's fluorescent RNaseAlert™ assay (40 nM substrate, 10 ug/ml ultrapure BSA) via BMG POLARstar Optima, according to the manufacturer's instructions. Resin treatment removed >95% of total RNase activity in diluted pancreas lysate. […] In this case, inactivation is accomplished by binding of the positively-charged RNase to the negatively-charged sulfopropyl resin. Thus the RNases can be physically removed from the tissue lysate and separated from the RNA that they might otherwise degrade over time.
# RNase T1 = biological target: T2, RNase T1 (Aspergillus oryzae, UniProt P00651); experiment: Radiolabeled RNA probe degradation gel assay, RNase T1; type: biochemical; conditions: 2.5 to 5 ug of heparin
# T2 sequence (P00651 27-130): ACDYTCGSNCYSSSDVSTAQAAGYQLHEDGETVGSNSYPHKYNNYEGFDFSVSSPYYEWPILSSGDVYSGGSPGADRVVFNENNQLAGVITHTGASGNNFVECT
# Description: The activity of anti-nuclease antibodies is readily determined using radiolabeled RNA or DNA to detect the inhibition of RNase or DNase by the anti-nuclease antibodies. In general, the nuclease and anti-nuclease antibody are separately diluted, typically in 1× assay buffer. Assay buffer, nuclease and anti-nuclease antibody are then added to 0.5 ml microfuge tubes. For assaying anti-RNase activity, a mixture comprising assay buffer, RNA and radiolabeled RNA is added to the microfuge tubes. The “MIX” of assay buffer, RNA and radiolabeled RNA is generally prepared by combining 10× Assay Buffer (0.9 μl/rxn), 5 mg/ml yeast RNA (0.4 μl/rxn), ^32-β actin RNA (1 μl/rxn), and nuclease-free H2O (6.7 μl/rxn) for a total of 9 μl/rxn. The tubes are vortexed and microfuged, then incubated at 37° C. for 30 minutes. After incubation, a portion of the tube contents is removed and placed into gel loading buffer. Then the tube contents and the gel loading buffer are mixed, and the combination is loaded onto a gel, typically a 8M urea/5% acrylamide gel, which is exposed to film. […]
# The activity of an anti-nuclease cocktail is readily determined using radiolabeled RNA or DNA to detect the inhibition of nuclease by anti-nuclease antibodies in the anti-nuclease cocktail. […]
# diluted liver lysate = conditions: 5 mm edta, liver lysate 1:5, e. coli total rna, room temperature 5.5 min
# Description: Tissues (5 mg) were dounced in 50 ul of non-denaturing, neutral ph buffer (24 mm hepes, ph 7.2, 50 mm nac1, 1 mm mgc12). Diluted tissue lysates (pancreas 1:20,000; liver 1:5) or 5 pg/ul bovine rnase a were pre-incubated with 0.2u/ul rip, 50 mm citrate or 5 mm edta for 30 sec. A total of 100 pg/ul e. Coli total rna was then added to the mixture and incubated at room temperature for an additional 4 min (FIG. 1., Lanes 1-5) or 5.5 min (lanes 6&7). […] The sample (1 ul) was analyzed by bioanalyzer 2100 after separation on an ma labchip.
compound,measurement,setting,value
"CCCCCCCCCCCCOS(=O)(=O)[O-].[Na+] [SDS, sodium dodecyl sulfate]",protection of RNA from degradation,diluted pancreas lysate,help remedy RNA degradation
same,"effect on anti-RNase A, 1, and T1 action of Specific Anti-RNase Cocktail","RNase A, 1, and T1",Addition of 0.1–0.5% SDS to Specific Anti-RNase Cocktail strengthened anti-
same,concentration that inhibited activity of RNase A,RNase A [1]; 50 pg of RNase A,0.25% SDS inhibited activity of 50 pg of RNase A.
O=C([O-])CC(O)(CC(=O)[O-])C(=O)[O-].[Na+].[Na+].[Na+] [NaCitrate],effect on RNase A activity,RNase A [2],Inhibits
Nc1ncnc2c1ncn2[C@@H]1O[C@H](COP(=O)(O)OP(=O)(O)OP(=O)(O)OP(=O)(O)OP(=O)(O)OC[C@H]2O[C@@H](n3cnc4c(N)ncnc43)[C@H](O)[C@@H]2O)[C@@H](O)[C@H]1O [Ap5A],% Inhibition,[3],88.5%
same,Slope/sec,[3],0.33
same,% Inhibition,[4],98.9%
same,Slope/sec,[4],0.02
same,% Inhibition,[5],97.2%
same,Slope/sec,[5],0.46
same,% Inhibition,[6]; Pancreas + 232 uM Ap5A,44.3%
same,Slope/sec,[6]; Pancreas + 232 uM Ap5A,13.58
same,% Inhibition,[6]; Pancreas + 1.3 mM Ap5A,87.5%
same,Slope/sec,[6]; Pancreas + 1.3 mM Ap5A,3.05
same,% Inhibition,[6]; Pancreas + 2.9 mM Ap5A,97.7%
same,Slope/sec,[6]; Pancreas + 2.9 mM Ap5A,0.55
[Cl-].[Na+] [NaCl],effect on RNase A activity,RNase A [2],inhibits
heparin,effect on activity of Rnases T1,RNase T1,*This amount of heparin did not effect the activities of RNases A and Rnases T1.
same,effect on activity of RNases A,RNase A [1]; 2.5 to 5 ug of heparin,*This amount of heparin did not effect the activities of RNases A and Rnases T1.
"O=C(O)CN(CCN(CC(=O)O)CC(=O)O)CC(=O)O [EDTA, ethylenediamine tetraacetic acid]",protection of total RNA from degradation,diluted liver lysate,significant protection
